Series [1] has as its system männliche Ratten eines Wistar-Lewis-Stammes. Kind of series: Adjuvant arthritis, preventive test (method of Pearson). The format is in vivo. To be noted: for ED50: Rattus norvegicus, 408 h, read-out: Adjuvans-Arthritis ED50; for Therapeut. Index UD50 / ED50: ratio of ulcerogenic UD50 to adjuvant arthritis ED50. The source says:
1. Adjuvans-Arthritis, praeventive Testung
Die Untersuchungen wurden nach der Methode von Pearson durchgeführt (Arthrit. Rheum. 2, 440 (1959)). Als Versuchstiere dienten männliche Ratten eines Wistar-Lewis-Stammes im Körpergewicht zwischen 130 und 200 g. Die zu prüfenden Verbindungen wurden täglich vom 1. bis 17. Versuchstag oral appliziert. Tiere einer Kontrollgruppe erhielten nur das Lösungsmittel. Als Wirkungskriterium diente die Herabsetzung der Pfoten-Volumenzunahme gegenüber der unbehandelten Kontrollgruppe. Die ED50-Werte wurden graphisch aus der Dosiswirkungskurve bestimmt.

The next series in a line: Acute toxicity. Particulars: mouse, in vivo, ip; NMRI mice, intraperitoneal, mortality within 7 days; read-out: Toxizität LD50-Bereich (Maus i.p.). An excerpt:
Die Bestimmung der LD50-Bereiche erfolgte standardgemäß über die innerhalb von 7 Tagen bei NMRI-Mäusen nach intraperitonealer Gabe auftretende Mortalität.

Series [2] can be described thus: Ulcerogenic effect (gastric mucosal lesions after oral dose). The format is in vivo, Ratten. To be noted: rat, gastric mucosa, fasted rats, killed 24 h after dose, UD50 by Litchfield and Wilcoxon, read-out: Ulzerogenität UD50. An excerpt:
(§1) Die Untersuchungen erfolgten an männlichen Sprague-Dawley Ratten im Körpergewicht zwischen 200 und 300 g. 48 Stunden vor Applikation der Testsubstanzen bis zum Töten der Tiere wurde das Futter entzogen, bei freiem Zugang zum Trinkwasser. Die Ratten wurden 24 Stunden nach oraler Gabe getötet, der Magen entommen, unter fließendem Wasser gereinigt und auf Schleimhautlösionen inspiziert. Als Ulzera galten alle makroskopisch sichtbaren Läsionen. Bestimmt wurde der Anteil der Tiere mit Ulzera pro dosi und die UD50 nach Litchfield und Wilcoxon (J. Pharmacol. exp. Ther. 96, 99 (1949)).

A further series has as its system NMRI-Mäusen. Particulars: literature value (Barnes and Eltherington, Drug Dosage in Laboratory Animals, 1973, p. 199); cited from earlier work.
In series [3] the test system is männlichen Sprague-Dawley Ratten. Kind of series: Ulcerogenic effect (gastric mucosal lesions after oral dose). The series is classed as in vivo. Particulars: fasted rats, killed 24 h after dose, UD50 by Litchfield and Wilcoxon.
Source text: as §1

The mark [4] stands for this setting: oral, daily from day 1 to 17, reduction of paw volume increase vs. control, ED50 read graphically from dose-response curve.

By ED50 is commonly meant the midpoint of the dose-response relation. As usually defined, the LD50 is the dose at which mortality reaches 50%.

Marks after values point to notes of the source that are not given here.

With `Cc1oncc1C(=O)Nc1ccc(F)cc1` [P 25 24 959 Nr. 10, N-(4-Fluorphenyl)-5-methylisoxazol-4-carboxamid, reference compound], in series [1] (setting [4]), the ED50 came out at 15 mg/kg. Moreover, the “Therapeut. Index UD50 / ED50” value in series [1] is 17. Further, the LD50 at 168 h in “Acute toxicity” is 200 to 400 mg/kg. In addition, the TD50 at 24 h in series [2] came out at 250 mg/kg.
For `Cc1oncc1C(=O)Nc1ccc(Oc2ccc(C(F)(F)F)cc2)cc1` [Beispiel 10, N-[4-(4-Trifluormethylphenoxy)-phenyl]-5-methylisoxazol-4-carboxamid], the median effective dose (ED50) in series [1] (setting [4]) worked out at 8 mg/kg. Besides, the “Therapeut. Index UD50 / ED50” value in series [1] was 29. Besides, in “Acute toxicity”, the LD50 at 168 h was 150 to 300 mg/kg. Further, in series [2], the TD50 at 24 h worked out at 230 mg/kg.
Regarding “Phenylbutazon [Phenyl=butazon, reference compound]”, the “Toxizität LD50 (Maus i.p.)” value with NMRI-Mäusen was “LD50 = 336^* mg/kg”. Also, the “Adjuvans-Arthritis ED50” value in series [1] (oral, daily from day 1 to 17, reduction of paw volume increase vs. control, ED50 read graphically from dose-response curve, 24480 min) was found to be 37 mg/kg. Moreover, the “Ulzerogenität UD50” value in series [3] stood at 100 mg/kg.
For `O=C(Nc1ccc(C(F)(F)F)cc1)c1cnoc1C(F)(F)F` [Beispiel 6, N-(4-Trifluormethylphenyl)-5-trifluormethylisoxazol-4-carboxamid], the ED50 in series [1] (setting [4]) stood at 3 mg/kg. Besides, the “Therapeut. Index UD50 / ED50” value in series [1] stood at 27. Further, the TD50 at 24 h in series [2] is 80 mg/kg.
As to `CCc1oncc1C(=O)Nc1ccc(C(F)(F)F)cc1` [Beispiel 1, N-(4-Trifluormethylphenyl)-5-äthylisoxazol-4-carboxamid], the ED50 in series [1] (setting [4]) turned out to be 6 mg/kg. The “Therapeut. Index UD50 / ED50” value in series [1] is reported as 12. For the same compound, the median lethal dose (LD50) at 168 h in “Acute toxicity” was in the range of 150 to 300 mg/kg. Further, in series [2], the TD50 at 24 h worked out at 70 mg/kg.

These data come from patent EP0012435A2, “Isoxazole derivatives, process for their preparation, medicines containing them and intermediates required in this process” (HOECHST AKTIENGESELLSCHAFT, priority 1978, dated 1980).
